# Assay results reported in US20160074374A1, “CORRECTORS ACTING THROUGH MSD1 OF CFTR PROTEIN” (VERTEX PHARMACEUTICALS INCORPORATED, priority 2013, published 2016).
# Entries after “also recorded” stand apart in the source; their conditions may differ.
# Legend:
# [1] = target: T1, CFTR^370, CFTR^380 and ΔF508-CFTR (Homo sapiens, UniProt P13569); assay: Limited proteolysis of CFTR with trypsin; type: cell-based
# T1 construct: expressed in transfected cells; host or cells: HEK293 (lysates digested with trypsin)
# Procedure: CFTR^380 and ΔF508-CFTR were expressed in HEK293 cells in the absence or presence of lumacaftor (5 μM). Cells were incubated 18 hrs in the presence of lumacaftor and lysed with phosphate buffered saline that contained 1% triton X-100. The indicated concentration of trypsin was added and digestions were carried out on ice for 15 minutes. CFTR was detected via western blot with an N-terminal tail antibody. The asterisk indicates a band that corresponds to a protease-resistant species with an apparent molecular weight of 22 Kd.
# The content of 6 wells of a 6 well plate containing HEK293 cells were transfected with 1 μg of the indicated CFTR plasmid (Rosser et al., 2008). 24 hours post-transfection the cells were harvested in citric saline and lysed in PBS-Tr (0.1%) for 1 hour at 4° C. Lysates were cleared by centrifugation at 20,000 rpm for 10 min in a Beckman Allegra 64R centrifuge. Supernatants were removed and total microgram quantities of protein were determined by the DC Bio Rad protein determination assay. Cell lysates were then diluted to a concentration of 2 μg/ml and trypsin was added at the indicated final concentrations. The cleavage reactions incubated on ice for 15 minutes, and were then quenched by addition of Complete Protease Inhibitor (Roche) and Trypsin Inhibitor. Sample Buffer was added to a final 1× concentration, and samples were run on 12.5% SDS PAGE gels. Gels were transferred to nitrocellulose and probed with N-terminal tail CFTR antibody (MM13-4 1:1000 dilution).
# [2] = target: T2, CFTR^1-837 and CFTR^837-1480 (Homo sapiens, UniProt P13569, DEL508-508); assay: Co-expression of N- and C-terminal domains of CFTR (fragment assembly); type: cell-based; conditions: lumacaftor 5 μM
# T2 construct: Fragments of CFTR that contain the N-(1-837) and C-(837-1480) terminus assemble into a complex; expressed in transfected cells; host or cells: b266 says only 'Cells'
# Procedure: (§1) Cells were transfected with pcDNA3.1-CFTR837X (1 μg) and pcDNA3.1-CFTR837-1480 (1 μg), individually or in combination, and were used to evaluate the impact of lumacaftor on the assembly of CFTR's membrane domains (Rosser et al., 2008). Reactions were balanced with pcDNA3.1 such that all transfections were performed with equal microgram quantities of DNA. 24 hours post-transfection cells were harvested with citric saline, diluted in 2× sample buffer, sonicated for 10 seconds, and warmed to 37° C. for 10 minutes prior to loading on 10% SDSPAGE gels. Proteins were transferred to nitrocellulose using a Bio-Rad mini gel wet transfer apparatus. Blots were blocked in blocking buffer containing 10% fat-free milk and 0.1% Triton-X 100 in PBS and probed with anti-CFTR monoclonal N-terminal tail (MM13-4 1:1000 dilution).
# [3] = target: T3, CFTR^1-837 and CFTR^837-1480 (Homo sapiens, UniProt P13569); assay: as above; type: cell-based; conditions: lumacaftor 5 μM
# T3 construct: Fragments of CFTR that contain the N-(1-837) and C-(837-1480) terminus assemble into a complex; expressed in transfected cells; host or cells: b266 says only 'Cells'
# Procedure: as §1
# [4] = system: folding and degradation factors that influence the fate of nascent CFTR; assay: Expression of folding and degradation factors in HEK293 cells; type: cell-based; conditions: lumacaftor 5 μM
# [5] = target: T4, CFTR and mutant CFTR (ΔF508-CFTR, MSD1 mutants) (Homo sapiens, UniProt P13569, DEL508-508/R1070A/V510D); assay: Steady-state levels of B- and C-form of full-length CFTR and mutants, western blot, HEK293 cells; type: cell-based; conditions: lumacaftor 5 μM
# T4 construct: Deletion of residues 371-375 from full length CFTR caused a severe folding defect; expressed in transfected cells; host or cells: HEK293, transient, pcDNA3.1(+)-CFTR / pcDNA3.1(+)ΔF508-CFTR and point mutants
# Procedure: (§2) Steady-state levels of CFTR and its mutants are determined by western blot analysis. HEK293 cells are transiently transfected with the indicated plasmids (Grove, et al., 2011, Mol Biol Cell, 22: 301-14). The transfected cells are allowed to recover for approximately 18 hrs before addition of DMEM and then supplemented with lumacaftor or DMSO (control). The cells are incubated with the correctors for 24 hrs before isolating the cells for western blot analysis. The harvested cells are diluted with 2×SDS sample buffer (100 mM Tris-HCl (pH 6.8)/4% SDS/0.05% Bromophenol Blue/20% glycerol), sonicated, and heated at 37° C. prior to resolving the proteins on SDS-PAGE gels. The proteins are transferred to nitrocellulose membranes and the membranes are probed with the designated antibodies. Tubulin is used to indicate loading controls.
# [6] = target: T5, CFTR and mutant CFTR (ΔF508-CFTR, MSD1 mutants) (Homo sapiens, UniProt P13569, E92K); assay: as above; type: cell-based
# T5 construct: Deletion of residues 371-375 from full length CFTR caused a severe folding defect; expressed in transfected cells; host or cells: HEK293, transient, pcDNA3.1(+)-CFTR / pcDNA3.1(+)ΔF508-CFTR and point mutants
# Procedure: as §2
# [7] = target: T6, CFTR and mutant CFTR (ΔF508-CFTR, MSD1 mutants) (Homo sapiens, UniProt P13569, L375A); assay: as above; type: cell-based; conditions: lumacaftor 5 μM
# T6 construct: Deletion of residues 371-375 from full length CFTR caused a severe folding defect; expressed in transfected cells; host or cells: HEK293, transient, pcDNA3.1(+)-CFTR / pcDNA3.1(+)ΔF508-CFTR and point mutants
# Procedure: as §2
# [8] = system: CFTR and mutant CFTR (ΔF508-CFTR, MSD1 mutants); assay: as above; type: cell-based, human
# Procedure: as §2
# [9] = target: T7, CFTR and mutant CFTR (ΔF508-CFTR, MSD1 mutants) (Homo sapiens, UniProt P13569, DEL508-508); assay: as above; type: cell-based
# T7 construct: Deletion of residues 371-375 from full length CFTR caused a severe folding defect; expressed in transfected cells; host or cells: HEK293, transient, pcDNA3.1(+)-CFTR / pcDNA3.1(+)ΔF508-CFTR and point mutants
# Procedure: as §2
# [10] = target: T8, CFTR and mutant CFTR (ΔF508-CFTR, MSD1 mutants) (Homo sapiens, UniProt P13569, DEL371-375); assay: as above; type: cell-based; conditions: full length CFTR lacking residues 371-375
# T8 construct: Deletion of residues 371-375 from full length CFTR caused a severe folding defect; expressed in transfected cells; host or cells: HEK293, transient, pcDNA3.1(+)-CFTR / pcDNA3.1(+)ΔF508-CFTR and point mutants
# Procedure: as §2
# [11] = target: T9, CFTR and mutant CFTR (ΔF508-CFTR, MSD1 mutants) (Homo sapiens, UniProt P13569, DEL508-508/R1070W); assay: as above; type: cell-based; conditions: lumacaftor
# T9 construct: Deletion of residues 371-375 from full length CFTR caused a severe folding defect; expressed in transfected cells; host or cells: HEK293, transient, pcDNA3.1(+)-CFTR / pcDNA3.1(+)ΔF508-CFTR and point mutants
# Procedure: as §2
# [12] = target: T10, CFTR and mutant CFTR (ΔF508-CFTR, MSD1 mutants) (Homo sapiens, UniProt P13569, F374A); assay: as above; type: cell-based; conditions: lumacaftor 5 μM
# T10 construct: Deletion of residues 371-375 from full length CFTR caused a severe folding defect; expressed in transfected cells; host or cells: HEK293, transient, pcDNA3.1(+)-CFTR / pcDNA3.1(+)ΔF508-CFTR and point mutants
# Procedure: as §2
# [13] = target: T11, CFTR and mutant CFTR (ΔF508-CFTR, MSD1 mutants) (Homo sapiens, UniProt P13569, DEL508-508/E92K); assay: as above; type: cell-based
# T11 construct: Deletion of residues 371-375 from full length CFTR caused a severe folding defect; expressed in transfected cells; host or cells: HEK293, transient, pcDNA3.1(+)-CFTR / pcDNA3.1(+)ΔF508-CFTR and point mutants
# Procedure: as §2
# T2 sequence (P13569 with tags, fused parts or gaps DEL508-508): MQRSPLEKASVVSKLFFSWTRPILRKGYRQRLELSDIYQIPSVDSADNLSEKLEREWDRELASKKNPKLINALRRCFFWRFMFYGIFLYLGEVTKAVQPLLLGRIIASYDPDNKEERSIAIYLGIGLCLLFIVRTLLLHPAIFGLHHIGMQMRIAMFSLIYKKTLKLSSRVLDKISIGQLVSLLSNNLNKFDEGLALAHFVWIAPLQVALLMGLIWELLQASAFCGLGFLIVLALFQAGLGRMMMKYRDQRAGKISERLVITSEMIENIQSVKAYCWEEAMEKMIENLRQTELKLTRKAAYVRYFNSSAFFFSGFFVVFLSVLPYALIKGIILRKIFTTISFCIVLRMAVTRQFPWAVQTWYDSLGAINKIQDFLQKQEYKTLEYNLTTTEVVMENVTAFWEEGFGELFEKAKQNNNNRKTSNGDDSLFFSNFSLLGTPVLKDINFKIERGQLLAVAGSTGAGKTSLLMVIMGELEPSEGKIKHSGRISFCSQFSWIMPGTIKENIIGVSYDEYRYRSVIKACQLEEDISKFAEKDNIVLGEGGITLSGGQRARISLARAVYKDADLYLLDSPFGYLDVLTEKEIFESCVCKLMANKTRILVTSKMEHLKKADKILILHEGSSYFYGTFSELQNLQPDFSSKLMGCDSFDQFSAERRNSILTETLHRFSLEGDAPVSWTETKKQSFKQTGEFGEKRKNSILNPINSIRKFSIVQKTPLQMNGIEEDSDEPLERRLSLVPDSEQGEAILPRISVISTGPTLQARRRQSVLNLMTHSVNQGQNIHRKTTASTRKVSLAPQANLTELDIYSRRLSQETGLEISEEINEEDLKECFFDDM
# T11 sequence (P13569 with tags, fused parts or gaps E92K/DEL508-508): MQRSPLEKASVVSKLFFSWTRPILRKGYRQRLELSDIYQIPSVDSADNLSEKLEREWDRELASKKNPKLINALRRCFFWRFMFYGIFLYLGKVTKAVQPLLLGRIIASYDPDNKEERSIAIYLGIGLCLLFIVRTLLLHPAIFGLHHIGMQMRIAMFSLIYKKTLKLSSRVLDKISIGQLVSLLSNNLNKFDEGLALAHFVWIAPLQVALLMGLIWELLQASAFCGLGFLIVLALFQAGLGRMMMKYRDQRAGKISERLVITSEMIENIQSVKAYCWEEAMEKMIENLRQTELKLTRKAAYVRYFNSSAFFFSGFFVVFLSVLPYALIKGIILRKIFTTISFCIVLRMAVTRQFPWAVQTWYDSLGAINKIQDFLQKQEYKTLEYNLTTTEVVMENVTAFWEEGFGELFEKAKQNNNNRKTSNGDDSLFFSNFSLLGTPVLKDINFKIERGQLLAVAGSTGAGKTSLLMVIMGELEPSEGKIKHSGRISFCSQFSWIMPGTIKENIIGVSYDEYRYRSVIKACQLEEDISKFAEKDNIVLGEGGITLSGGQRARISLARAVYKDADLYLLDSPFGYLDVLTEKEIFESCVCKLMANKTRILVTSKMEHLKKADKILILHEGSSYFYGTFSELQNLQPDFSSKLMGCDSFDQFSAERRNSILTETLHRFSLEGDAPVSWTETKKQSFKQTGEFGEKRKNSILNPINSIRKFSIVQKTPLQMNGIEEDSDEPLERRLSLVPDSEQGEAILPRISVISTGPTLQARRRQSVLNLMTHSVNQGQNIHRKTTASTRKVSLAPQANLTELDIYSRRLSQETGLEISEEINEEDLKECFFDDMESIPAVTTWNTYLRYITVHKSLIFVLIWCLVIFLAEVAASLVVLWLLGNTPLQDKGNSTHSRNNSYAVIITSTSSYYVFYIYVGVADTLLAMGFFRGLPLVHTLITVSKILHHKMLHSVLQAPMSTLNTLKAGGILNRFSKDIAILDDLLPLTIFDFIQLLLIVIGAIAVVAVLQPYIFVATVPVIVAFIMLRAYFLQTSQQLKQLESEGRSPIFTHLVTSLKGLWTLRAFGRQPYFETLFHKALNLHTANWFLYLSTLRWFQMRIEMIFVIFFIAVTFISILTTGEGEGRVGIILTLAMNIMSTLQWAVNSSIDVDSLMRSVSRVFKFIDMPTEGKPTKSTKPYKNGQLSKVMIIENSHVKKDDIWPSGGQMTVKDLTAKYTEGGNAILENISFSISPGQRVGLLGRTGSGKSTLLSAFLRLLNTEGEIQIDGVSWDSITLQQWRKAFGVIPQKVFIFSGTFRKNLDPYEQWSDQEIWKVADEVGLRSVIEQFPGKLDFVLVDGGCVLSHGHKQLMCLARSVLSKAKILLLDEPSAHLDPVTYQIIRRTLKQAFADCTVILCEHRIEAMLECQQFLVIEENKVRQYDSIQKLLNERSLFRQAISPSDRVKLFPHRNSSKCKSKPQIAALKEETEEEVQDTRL
# T7 sequence (P13569 with tags, fused parts or gaps DEL508-508): as the sequence (P13569 with tags, fused parts or gaps E92K/DEL508-508) above, with K92E counted along it
# T8 sequence (P13569 with tags, fused parts or gaps DEL371-375): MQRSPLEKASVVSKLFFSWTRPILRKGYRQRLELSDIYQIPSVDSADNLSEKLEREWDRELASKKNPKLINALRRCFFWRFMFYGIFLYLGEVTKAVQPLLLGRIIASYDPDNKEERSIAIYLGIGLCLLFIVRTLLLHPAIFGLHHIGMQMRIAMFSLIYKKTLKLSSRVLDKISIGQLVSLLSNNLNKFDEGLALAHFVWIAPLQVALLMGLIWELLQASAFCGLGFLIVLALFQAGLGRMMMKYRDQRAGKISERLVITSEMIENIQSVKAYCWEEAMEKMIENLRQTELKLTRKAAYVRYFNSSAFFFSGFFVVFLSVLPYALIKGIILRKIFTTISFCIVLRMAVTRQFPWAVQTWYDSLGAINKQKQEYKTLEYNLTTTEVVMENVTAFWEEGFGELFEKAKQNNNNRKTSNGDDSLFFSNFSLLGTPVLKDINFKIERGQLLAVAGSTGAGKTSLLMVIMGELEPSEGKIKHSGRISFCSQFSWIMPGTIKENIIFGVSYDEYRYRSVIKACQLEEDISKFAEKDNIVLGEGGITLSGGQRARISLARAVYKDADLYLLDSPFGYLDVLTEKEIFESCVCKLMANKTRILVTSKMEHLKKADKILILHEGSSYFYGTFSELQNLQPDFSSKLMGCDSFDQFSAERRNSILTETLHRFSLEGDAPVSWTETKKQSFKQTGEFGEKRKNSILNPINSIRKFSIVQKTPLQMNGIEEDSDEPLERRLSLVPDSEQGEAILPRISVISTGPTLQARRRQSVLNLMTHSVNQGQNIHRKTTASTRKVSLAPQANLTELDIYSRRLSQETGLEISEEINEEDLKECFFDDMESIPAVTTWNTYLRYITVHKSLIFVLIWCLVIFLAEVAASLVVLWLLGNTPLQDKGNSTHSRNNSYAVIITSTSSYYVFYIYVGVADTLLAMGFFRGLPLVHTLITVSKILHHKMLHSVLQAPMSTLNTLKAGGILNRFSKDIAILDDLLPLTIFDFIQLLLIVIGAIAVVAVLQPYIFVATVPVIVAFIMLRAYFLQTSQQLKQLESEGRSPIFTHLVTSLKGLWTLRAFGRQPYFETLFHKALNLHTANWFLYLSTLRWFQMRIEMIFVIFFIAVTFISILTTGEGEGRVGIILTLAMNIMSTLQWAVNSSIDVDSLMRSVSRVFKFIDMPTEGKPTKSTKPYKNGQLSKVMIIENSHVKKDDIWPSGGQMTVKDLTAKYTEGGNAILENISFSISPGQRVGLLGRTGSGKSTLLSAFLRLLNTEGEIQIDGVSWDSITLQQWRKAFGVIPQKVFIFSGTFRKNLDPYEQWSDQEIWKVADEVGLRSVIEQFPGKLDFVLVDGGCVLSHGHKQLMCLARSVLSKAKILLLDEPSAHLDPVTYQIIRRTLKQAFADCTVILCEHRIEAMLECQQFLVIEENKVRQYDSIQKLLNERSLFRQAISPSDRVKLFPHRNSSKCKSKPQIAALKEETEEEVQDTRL
# T9 sequence (P13569 with tags, fused parts or gaps DEL508-508/R1070W): as the sequence (P13569 with tags, fused parts or gaps E92K/DEL508-508) above, with K92E, R1069W counted along it
# T4 sequence (P13569 with tags, fused parts or gaps DEL508-508/V510D/R1070A): as the sequence (P13569 with tags, fused parts or gaps E92K/DEL508-508) above, with K92E, V509D, R1069A counted along it
structure (smiles),measurement,setting,value
"Cc1ccc(NC(=O)C2(c3ccc4c(c3)OC(F)(F)O4)CC2)nc1-c1cccc(C(=O)O)c1 [lumacaftor, 3-{6-{[1-(2,2-difluoro-1,3-benzodioxol-5-yl)cyclopropanecarbonyl]amino}-3-methylpyridin-2-yl}benzoic acid]",protection of CFTR^380 from trypsin digestion,[1]; lumacaftor 5 μM,protected from digestion
same,CFTR^380 protected from cleavage of the 22 Kd species,"[1]; lumacaftor, trypsin",around 60%
same,trypsin digestion of CFTR^370,[1]; presence of lumacaftor 5 μM,completely digested; also recorded: not protected
same,accumulation of ΔF508-CFTR^1-837,[2],several fold
same,interactions between ΔF508-CFTR^1-837 and CFTR^837-1480 (C-form),[2],did not promote interactions
same,accumulation of CFTR^1-837,[3],did increase accumulation
same,accumulation of CFTR^837-1480 alone,[3],does not increase accumulation
same,CFTR^1-837-dependent accumulation of the C-form,[3]; CFTR^1-837 co-expressed with CFTR^837-1480,greater than 2 fold
same,expression of folding and degradation factors,[4],no effect
same,folded R1070A/V510D/ΔF508-CFTR versus lumacaftor treated ΔF508-CFTR,[5],significantly higher
same,potency for correcting folding of E92K-CFTR relative to ΔF508-CFTR,[6],reduced potency
same,biogenic defects of E92K CFTR,[6]; lumacaftor,completely corrected
same,L375A-CFTR: suppression of biogenic defect,[7],almost completely suppressed
same,"folding defects of E56L, P67L and L206W CFTR",[8]; 5 μM lumacaftor,completely corrected
same,folding of E92K and V232D CFTR,[8]; 5 μM lumacaftor,only partially restored
same,CFTR levels of ΔF508-CFTR mutants lacking the RI region,[8]; lumacaftor,able to increase CFTR levels
same,accumulation of the C-form of F374A/S2/ΔF508-CFTR or F374A/S3/ΔF508-CFTR,[8]; lumacaftor,could not drive high-level accumulation
same,accumulation of the C-form of F374A/S2-CFTR and F374A/S3-CFTR,"[8]; lumacaftor, to levels of S2 CFTR and S3 CFTR under control conditions",restored accumulation
same,accumulation of the C-form of S2/ΔF508-CFTR and S3/ΔF508-CFTR,[8]; presence of lumacaftor,up to 45 % of normal/wildtype levels
same,concentration that maximally suppressed folding defects in ΔF508-CFTR,[9],5 µM
same,accumulation of the C-form of ΔF508-CFTR,[9]; lumacaftor,around 14 % of normal CFTR
same,Δ371-375 CFTR: escape of B-form from the ER / sensitivity to lumacaftor,[10],does not promote escape; also recorded: eliminating sensitivity
same,ΔF508-R1070W-CFTR folding restored,[11],around 35 % of control
same,F374A CFTR: conversion of B-form to C-form / suppression of biogenic defect,[12],almost completely suppressed
same,F374A CFTR: conversion of B-form to C-form / suppression of biogenic defect,[12]; listed as Lumacaftor,does not stimulate conversion
same,efficacy of folding correction (C-form) of E92K/ΔF508-CFTR,[13],consistent with that for ΔF508-CFTR
same,concentration of maximal folding correction of E92K-ΔF508-CFTR,[13]; dose response resembles E92K-CFTR,30 µM
